Experimental data published in patent US6218425A, “8-substituted B-nor-6-Thiaequilenin compounds having activity as selective estrogen receptor modulators” (Eli Lilly and Company, priority 1997, dated 2001).

Assays:
ovariectomized rats = assay: Ovariectomized rat model of postmenopausal hyperlipidemia (serum cholesterol, uterine weight, uterine eosinophil infiltration); format: in vivo; settings: for Serum Cholesterol % Decrease / Uterine Weight Increase: versus ovariectomized controls
Experimental: Experimental models of postmenopausal hyperlipidemia are known in the art.
This uterine response to estrogen is well recognized in the art.
As expressed in the data below, estrogenicity also was assessed by evaluating the response of eosinophil infiltration into the uterus.
The data presented in Table 2 reflect the response per treatment group.

estrogen receptor = estrogen receptor (Homo sapiens, UniProt P03372); settings: competition with 0.5 nM 3H-17β-estradiol, MCF-7 lysate protein, 18 hours at 5° C.
Chain of estrogen receptor (P03372 whole entry): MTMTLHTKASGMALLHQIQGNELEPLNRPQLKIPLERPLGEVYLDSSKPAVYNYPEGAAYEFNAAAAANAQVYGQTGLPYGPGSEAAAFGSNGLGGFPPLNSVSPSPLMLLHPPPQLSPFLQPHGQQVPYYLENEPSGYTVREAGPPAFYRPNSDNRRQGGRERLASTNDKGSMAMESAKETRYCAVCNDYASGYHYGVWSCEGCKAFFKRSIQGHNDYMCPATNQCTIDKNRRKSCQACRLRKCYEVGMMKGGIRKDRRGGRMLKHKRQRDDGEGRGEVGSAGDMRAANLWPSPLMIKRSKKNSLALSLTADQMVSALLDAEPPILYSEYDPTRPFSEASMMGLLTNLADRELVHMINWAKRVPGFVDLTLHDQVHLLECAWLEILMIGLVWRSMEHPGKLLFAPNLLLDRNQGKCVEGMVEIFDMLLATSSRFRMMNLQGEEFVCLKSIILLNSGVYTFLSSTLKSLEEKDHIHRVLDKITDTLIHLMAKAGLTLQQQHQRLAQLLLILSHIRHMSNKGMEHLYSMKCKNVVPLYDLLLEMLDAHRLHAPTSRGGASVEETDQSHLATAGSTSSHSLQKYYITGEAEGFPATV
Experimental: Representative compounds of the present invention were tested in an estrogen receptor binding assay in which the test compounds were allowed to compete for binding with tritiated 17β-estradiol.
In the assay, serial dilutions of the test compound were mixed with 0.5 nM of ^3 H-17β-estradiol, along with 0.5 mg/mL of protein from MCF-7 lysates, to a total volume of 0.14 mL. Binding was allowed to take place for 18 hours at 5° C., followed by the addition of 0.07 mL of dextran/charcoal and centrifugation to remove non-bound radioligand. Aliquots of supernate containing bound radioligand were mixed with scintillant and counted. Relative binding affinity (RBA) was calculated as: [formula]

[1] = system: MCF-7 breast adenocarcinoma cells; assay: MCF-7 Proliferation Assay; format: cell-based; settings: dose level of 500 nM
Experimental: A. MCF-7 Proliferation Assay Test Procedure MCF-7 breast adenocarcinoma cells (ATCC HTB 22) are maintained in MEM (minimal essential medium, phenol-red free, Sigma St. Louis Mo.) supplemented with 10% fetal bovine serum (FBS) (v/v), L-glutamine (2 mM), sodium pyruvate ([…]), HEPES (10 mM), non-essential amino acids, and bovine insulin (1 ug/mL). Ten days prior to the assay, the MCF-7 cells are switched to maintenance medium supplemented with 10% dextran-coated charcoal stripped fetal bovine serum (DCC-FBS) assay medium in place of the 10% FBS to deplete internal stores of estrogen. MCF-7 cells are removed from the maintenance flasks using a cell dissociating medium (Ca/Mg free HBSS; phenol-red free) supplemented with 10 mM HEPES and 2 mM EDTA. Cells are washed twice with the assay medium and adjusted to 80,000 cells/mL. Approximately 100 uL (8,000 cells)are added to a flat-bottomed micro culture well (Costar 3596) and incubated at 37° C. in a 5% CO2 humidified incubator for 48 hours to allow cell adherence and equilibrium after transfer. […] Samples are counted by liquid scintillation. Fifty percent inhibitory concentration of the test drugs (IC50) are determined versus the control (DMSO).

COc1ccc2c3c(sc2c1)[C@H]1CC[C@H](O)[C@]1(C)CC3 [Example 6, 3β-Hydroxy-8-methoxy-3aα-methyl-2,3,3a,4,5,10bβ-tetrahydro-1H-benz[b]indeno[5,4-d]thiophene]
Uterine Eosinophil (Vmax) (eosinophil peroxidase, Vmaximum) (ovariectomized rats; dose 0.1 mg/kg): 3.0 | Serum Cholesterol % Decrease (ovariectomized rats; dose 0.1 mg/kg): -0.3% | Uterine Weight Increase (ovariectomized rats; dose 0.1 mg/kg): 4.8% | Uterine Eosinophil (Vmax) (eosinophil peroxidase, Vmaximum) (ovariectomized rats; dose 1.0 mg/kg): 1.2 | Serum Cholesterol % Decrease (ovariectomized rats; dose 1.0 mg/kg): -4.7% | Uterine Weight Increase (ovariectomized rats; dose 1.0 mg/kg): 9.8% | Uterine Eosinophil (Vmax) (eosinophil peroxidase, Vmaximum) (ovariectomized rats; dose 10.0 mg/kg): 8.1 | Serum Cholesterol % Decrease (ovariectomized rats; dose 10.0 mg/kg): 63.7% | Uterine Weight Increase (ovariectomized rats; dose 10.0 mg/kg): 86.9%

C[C@]12CCc3c(sc4cc(O)ccc34)[C@@H]1CC[C@@H]2O [Example 8, 3β,8-Dihydroxy-3aβ-methyl-2,3,3a,4,5,10bα-tetrahydro-1H-benz[b]indeno[5,4-d]thiophene]
Relative binding affinity (RBA) (estrogen receptor): 16 | Uterine Eosinophil (Vmax) (eosinophil peroxidase, Vmaximum) (ovariectomized rats; dose 0.01 mg/kg): 4.2 | Serum Cholesterol % Decrease (ovariectomized rats; dose 0.01 mg/kg): -1% | Uterine Weight Increase (ovariectomized rats; dose 0.01 mg/kg): 13.7% | Uterine Eosinophil (Vmax) (eosinophil peroxidase, Vmaximum) (ovariectomized rats; dose 0.1 mg/kg): 4.5 | Serum Cholesterol % Decrease (ovariectomized rats; dose 0.1 mg/kg): 10.6% | Uterine Weight Increase (ovariectomized rats; dose 0.1 mg/kg): 1.4% | Uterine Eosinophil (Vmax) (eosinophil peroxidase, Vmaximum) (ovariectomized rats; dose 1.0 mg/kg): 3.0 | Serum Cholesterol % Decrease (ovariectomized rats; dose 1.0 mg/kg): 16.9% | Uterine Weight Increase (ovariectomized rats; dose 1.0 mg/kg): 0.2% | Uterine Eosinophil (Vmax) (eosinophil peroxidase, Vmaximum) (ovariectomized rats; dose 10.0 mg/kg): 14.7 | Serum Cholesterol % Decrease (ovariectomized rats; dose 10.0 mg/kg): 30.7% | Uterine Weight Increase (ovariectomized rats; dose 10.0 mg/kg): 48.4%

C#C[C@]1(O)CC[C@H]2[C@@H]3CCc4cc(O)ccc4[C@H]3CC[C@@]21C [EE2, 17-a-ethynyl estradiol, reference compound]
eosinophil infiltration into the uterus (in words) (ovariectomized rats; EE2 group): substantial and expected increase in eosinophil infiltration | Uterine Eosinophil (Vmax) (eosinophil peroxidase, Vmaximum) (ovariectomized rats; dose 0.1 mg/kg): 111.2 | Serum Cholesterol % Decrease (ovariectomized rats; dose 0.1 mg/kg): 88.1% | Uterine Weight Increase (ovariectomized rats; dose 0.1 mg/kg): 125.8% | serum cholesterol (in words) (ovariectomized rats; orally administered at 0.1 mg/kg/day): caused a decrease in serum cholesterol | uterine weight (in words) (ovariectomized rats; orally at 0.1 mg/kg/day, versus ovariectomized animals): substantially greater than the uterine weight of the ovariectomized animals

COc1ccc2c3c(sc2c1)C1=CC[C@H](O)[C@@]1(C)CC3 [Example 1, 3β-Hydroxy-8-methoxy-3aβ-methyl-3,3a,4,5-tetrahydro-2H-benz[b]indeno[5,4-d]thiophene]
Uterine Eosinophil (Vmax) (eosinophil peroxidase, Vmaximum) (ovariectomized rats; dose 0.01 mg/kg): 4.5 | Serum Cholesterol % Decrease (ovariectomized rats; dose 0.01 mg/kg): 30.0% | Uterine Weight Increase (ovariectomized rats; dose 0.01 mg/kg): -4.6% | Uterine Eosinophil (Vmax) (eosinophil peroxidase, Vmaximum) (ovariectomized rats; dose 0.1 mg/kg): 5.4 | Serum Cholesterol % Decrease (ovariectomized rats; dose 0.1 mg/kg): 5% | Uterine Weight Increase (ovariectomized rats; dose 0.1 mg/kg): 6.3% | Uterine Eosinophil (Vmax) (eosinophil peroxidase, Vmaximum) (ovariectomized rats; dose 1.0 mg/kg): 4.8 | Serum Cholesterol % Decrease (ovariectomized rats; dose 1.0 mg/kg): 27.5% | Uterine Weight Increase (ovariectomized rats; dose 1.0 mg/kg): 34.9% | Uterine Eosinophil (Vmax) (eosinophil peroxidase, Vmaximum) (ovariectomized rats; dose 10.0 mg/kg): 25.2 | Serum Cholesterol % Decrease (ovariectomized rats; dose 10.0 mg/kg): 60.3% | Uterine Weight Increase (ovariectomized rats; dose 10.0 mg/kg): 52.7%

COc1ccc2c3c(sc2c1)[C@H]1CC[C@@H](O)[C@]1(C)CC3 [Example 4b, 3α-hydroxy-8-methoxy-3aα-methyl-2,3,3a,4,5,10bβ-hexahydro-1H-benz[b]indeno[5,4-d]thiophene]
Uterine Eosinophil (Vmax) (eosinophil peroxidase, Vmaximum) (ovariectomized rats; dose 0.1 mg/kg): 3.9 | Serum Cholesterol % Decrease (ovariectomized rats; dose 0.1 mg/kg): -12% | Uterine Weight Increase (ovariectomized rats; dose 0.1 mg/kg): -2.6% | Uterine Eosinophil (Vmax) (eosinophil peroxidase, Vmaximum) (ovariectomized rats; dose 1.0 mg/kg): 3.9 | Serum Cholesterol % Decrease (ovariectomized rats; dose 1.0 mg/kg): -4.3% | Uterine Weight Increase (ovariectomized rats; dose 1.0 mg/kg): 10.7% | Uterine Eosinophil (Vmax) (eosinophil peroxidase, Vmaximum) (ovariectomized rats; dose 10.0 mg/kg): 30.0 | Serum Cholesterol % Decrease (ovariectomized rats; dose 10.0 mg/kg): 73.1% | Uterine Weight Increase (ovariectomized rats; dose 10.0 mg/kg): 116.3%

C[C@]12CCc3c(sc4cc(O)ccc34)[C@@H]1CC[C@H]2O [Example 9, 3α,8-Dihydroxy-3aβ-methyl-2,3,3a,4,5,10bα-tetrahydro-1H-benz[b]indeno[5,4-d]thiophene]
Relative binding affinity (RBA) (estrogen receptor): 9 | Uterine Eosinophil (Vmax) (eosinophil peroxidase, Vmaximum) (ovariectomized rats; dose 0.01 mg/kg): 4.5 | Serum Cholesterol % Decrease (ovariectomized rats; dose 0.01 mg/kg): 5.7% | Uterine Weight Increase (ovariectomized rats; dose 0.01 mg/kg): 5.5% | Uterine Eosinophil (Vmax) (eosinophil peroxidase, Vmaximum) (ovariectomized rats; dose 0.1 mg/kg): 3.3 | Serum Cholesterol % Decrease (ovariectomized rats; dose 0.1 mg/kg): 12.4% | Uterine Weight Increase (ovariectomized rats; dose 0.1 mg/kg): 10.2% | Uterine Eosinophil (Vmax) (eosinophil peroxidase, Vmaximum) (ovariectomized rats; dose 1.0 mg/kg): 3.9 | Serum Cholesterol % Decrease (ovariectomized rats; dose 1.0 mg/kg): 32.1% | Uterine Weight Increase (ovariectomized rats; dose 1.0 mg/kg): -5.3% | Uterine Eosinophil (Vmax) (eosinophil peroxidase, Vmaximum) (ovariectomized rats; dose 10.0 mg/kg): 106.5 | Serum Cholesterol % Decrease (ovariectomized rats; dose 10.0 mg/kg): 90.9% | Uterine Weight Increase (ovariectomized rats; dose 10.0 mg/kg): 103.1%

C[C@@]12CCc3c(sc4cc(O)ccc34)[C@H]1CC[C@H]2O [Example 11, 3α,8-Dihydroxy-3aα-methyl-2,3,3a,4,5,10bβ-tetrahydro-1H-benz[b]indeno[5,4-d]thiophene]
Relative binding affinity (RBA) (estrogen receptor): 4

C[C@]12CCc3c(sc4cc(O)ccc34)[C@H]1CC[C@@H]2O [Example 7, 3β,8-Dihydroxy-3aβ-methyl-2,3,3a,4,5,10bβ-tetrahydro-1H-benz[b]indeno[5,4-d]thiophene]
Relative binding affinity (RBA) (estrogen receptor): 11 | inhibition of breast cancer cell proliferation [1]: inhibit breast cancer cell proliferation | Uterine Eosinophil (Vmax) (eosinophil peroxidase, Vmaximum) (ovariectomized rats; dose 0.01 mg/kg): 4.8 | Serum Cholesterol % Decrease (ovariectomized rats; dose 0.01 mg/kg): 24.3% | Uterine Weight Increase (ovariectomized rats; dose 0.01 mg/kg): -3.2% | Uterine Eosinophil (Vmax) (eosinophil peroxidase, Vmaximum) (ovariectomized rats; dose 0.1 mg/kg): 4.8 | Serum Cholesterol % Decrease (ovariectomized rats; dose 0.1 mg/kg): 13% | Uterine Weight Increase (ovariectomized rats; dose 0.1 mg/kg): 4.4% | Uterine Eosinophil (Vmax) (eosinophil peroxidase, Vmaximum) (ovariectomized rats; dose 1.0 mg/kg): 3.6 | Serum Cholesterol % Decrease (ovariectomized rats; dose 1.0 mg/kg): 45.9% | Uterine Weight Increase (ovariectomized rats; dose 1.0 mg/kg): 9.1% | Uterine Eosinophil (Vmax) (eosinophil peroxidase, Vmaximum) (ovariectomized rats; dose 10.0 mg/kg): 123.0 | Serum Cholesterol % Decrease (ovariectomized rats; dose 10.0 mg/kg): 80.7% | Uterine Weight Increase (ovariectomized rats; dose 10.0 mg/kg): 123.0%

C[C@@]12CCc3c(sc4cc(O)ccc34)[C@@H]1CC[C@H]2O [Example 10, 3α,8-Dihydroxy-3aα-methyl-2,3,3a,4,5,10bα-tetrahydro-1H-benz[b]indeno[5,4-d]thiophene]
Relative binding affinity (RBA) (estrogen receptor): 4

COc1ccc2c3c(sc2c1)[C@@H]1CC[C@@H](O)[C@]1(C)CC3 [Example 4a, 3α-Hydroxy-8-methoxy-3aα-methyl-2,3,3a,4,5,10bα-hexahydro-1H-benz[b]indeno[5,4-d]thiophene]
Uterine Eosinophil (Vmax) (eosinophil peroxidase, Vmaximum) (ovariectomized rats; dose 0.1 mg/kg): 3.6 | Serum Cholesterol % Decrease (ovariectomized rats; dose 0.1 mg/kg): -5.5% | Uterine Weight Increase (ovariectomized rats; dose 0.1 mg/kg): 10.4% | Uterine Eosinophil (Vmax) (eosinophil peroxidase, Vmaximum) (ovariectomized rats; dose 1.0 mg/kg): 3.3 | Serum Cholesterol % Decrease (ovariectomized rats; dose 1.0 mg/kg): -8.1% | Uterine Weight Increase (ovariectomized rats; dose 1.0 mg/kg): 14.8% | Uterine Eosinophil (Vmax) (eosinophil peroxidase, Vmaximum) (ovariectomized rats; dose 10.0 mg/kg): 2.4 | Serum Cholesterol % Decrease (ovariectomized rats; dose 10.0 mg/kg): 63.8% | Uterine Weight Increase (ovariectomized rats; dose 10.0 mg/kg): 37.6%

COc1ccc2c3c(sc2c1)[C@@H]1CC[C@@H](O)[C@@]1(C)CC3 [Example 5, 3α-Hydroxy-8-methoxy-3aβ-methyl-2,3,3a,4,5,10bα-tetrahydro-1H-benz[b]indeno[5,4-d]thiophene]
Uterine Eosinophil (Vmax) (eosinophil peroxidase, Vmaximum) (ovariectomized rats; dose 0.01 mg/kg): 2.1 | Serum Cholesterol % Decrease (ovariectomized rats; dose 0.01 mg/kg): 14.8% | Uterine Weight Increase (ovariectomized rats; dose 0.01 mg/kg): -5.9% | Uterine Eosinophil (Vmax) (eosinophil peroxidase, Vmaximum) (ovariectomized rats; dose 0.1 mg/kg): 3.6 | Serum Cholesterol % Decrease (ovariectomized rats; dose 0.1 mg/kg): -18.5% | Uterine Weight Increase (ovariectomized rats; dose 0.1 mg/kg): 1.7% | Uterine Eosinophil (Vmax) (eosinophil peroxidase, Vmaximum) (ovariectomized rats; dose 1.0 mg/kg): 4.5 | Serum Cholesterol % Decrease (ovariectomized rats; dose 1.0 mg/kg): 40.9% | Uterine Weight Increase (ovariectomized rats; dose 1.0 mg/kg): 13.7% | Uterine Eosinophil (Vmax) (eosinophil peroxidase, Vmaximum) (ovariectomized rats; dose 10.0 mg/kg): 18.3 | Serum Cholesterol % Decrease (ovariectomized rats; dose 10.0 mg/kg): 87.0% | Uterine Weight Increase (ovariectomized rats; dose 10.0 mg/kg): 103.6%
